Test results: patent publication US7368477B2, “Benzofuranyl alkanamine derivatives and uses thereof” (Wyeth, priority 2005, dated 2008)
Read-outs that look alike come from different tables or passages of the source.

Key:
human 5-HT2C receptor = molecular target: T1, human 5-HT2C receptor (Homo sapiens, UniProt P28335); test: Calcium mobilization (FLIPR) in CHO cells stably expressing the human 5-HT2C receptor; assay type: cell-based; conditions: for Emax: CHO, read-out: 5-HT2C Function EMax (%); for EC50: calcium mobilization, h5-HT2C CHO cells, read-out: 5-HT2C Function EC50
T1 sequence (P28335 33-458): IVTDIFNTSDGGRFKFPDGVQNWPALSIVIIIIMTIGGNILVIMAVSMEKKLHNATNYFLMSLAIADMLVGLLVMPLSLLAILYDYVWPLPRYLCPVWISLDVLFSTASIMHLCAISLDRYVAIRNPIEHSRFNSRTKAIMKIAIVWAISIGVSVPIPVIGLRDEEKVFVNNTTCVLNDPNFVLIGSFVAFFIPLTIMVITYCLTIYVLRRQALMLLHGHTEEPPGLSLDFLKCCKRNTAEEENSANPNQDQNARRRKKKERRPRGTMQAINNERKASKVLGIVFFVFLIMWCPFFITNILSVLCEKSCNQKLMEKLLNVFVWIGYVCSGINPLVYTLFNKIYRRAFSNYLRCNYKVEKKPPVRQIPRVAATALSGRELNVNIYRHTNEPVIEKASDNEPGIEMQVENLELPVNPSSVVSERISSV

[1] = molecular target: T2, human 5-hydroxytryptamine-2C (h5-HT2C) receptor (Homo sapiens, UniProt P28335); test: [125I]DOI binding to membranes of CHO cells expressing the human 5-HT2C receptor
T2 construct: expressed in transfected cells; host or cells: CHO (Chinese Hamster Ovary) cells; membrane preparation
T2 sequence (P28335 33-458): T1 sequence (P28335 33-458)

[2] = read-out: 5-HT2C Binding Ki avg

SMILES | Emax (human 5-HT2C receptor) [%] | EC50 (human 5-HT2C receptor) [nM] | Ki [1, 2] [nM] | melting point | Ki ([1]; reference compounds, [125I]DOI displacement, h5-HT2C CHO membranes, read-out: Ki (95% confidence interval)) [nM] | Kd ([1]; saturation binding with increasing concentrations of [125I]DOI, read-out: dissociation constant, KD) [nM]
I.NCc1cc2cc(Cl)cc(-c3ccccc3)c2o1 [Compound 1, [(5-chloro-7-phenyl-1-benzofuran-2-yl)methyl]amine] | 70 | 200 to 2000 | 10 to 100 | > 225 °C | – | –
NCc1cc2cc(Cl)cc(-c3ccccc3F)c2o1 [Compound 2, {[5-chloro-7-(2-fluorophenyl)-1-benzofuran-2-yl]methyl}amine] | 80 | 200 to 2000 | 1 to 10 | – | – | –
NCc1cc2cc(Cl)cc(-c3ccccc3Cl)c2o1 [Compound 3, {[5-chloro-7-(2-chlorophenyl)-1-benzofuran-2-yl]methyl}amine] | 100 | < 10 | – | – | – | –
Cc1ccccc1-c1cc(Cl)cc2cc(CN)oc12 [Compound 4, {[5-chloro-7-(2-methylphenyl)-1-benzofuran-2-yl]methyl}amine] | 90 | 10 to 200 | – | – | – | –
COc1ccccc1-c1cc(Cl)cc2cc(CN)oc12 [Compound 5, {[5-chloro-7-(2-methoxyphenyl)-1-benzofuran-2-yl]methyl}amine] | 90 | 10 to 200 | 1 to 10 | – | – | –
NCc1cc2cc(Cl)cc(-c3ccccc3C(F)(F)F)c2o1 [Compound 6, ({5-chloro-7-[2-(trifluoro methyl)phenyl]-1-benzofuran-2-yl}methyl)amine] | 90 | 200 to 2000 | 10 to 100 | 215 to 218 °C (dec.) | – | –
NCc1cc2cc(F)cc(-c3c(Cl)cccc3Cl)c2o1 [Compound 7, {[7-(2,6-dichlorophenyl)-5-fluoro-1-benzofuran-2-yl]methyl}amine] | 100 | < 10 | 0.01 to 1 | – | – | –
Cc1ccccc1-c1cc(F)cc2cc(CN)oc12 [Compound 8, {[5-fluoro-7-(2-methylphenyl)-1-benzofuran-2-yl]methyl}amine] | 90 | < 10 | 1 to 10 | – | – | –
NCc1cc2cc(F)cc(-c3ccc(Cl)cc3Cl)c2o1 [Compound 9, {[7-(2,4-dichlorophenyl)-5-fluoro-1-benzofuran-2-yl]methyl}amine] | 90 | < 10 | 0.01 to 1 | – | – | –
COc1ccccc1-c1cc(F)cc2cc(CN)oc12 [Compound 10, 1-[5-fluoro-7-(2-methoxyphenyl)-1-benzofuran-2-yl]methanamine] | 80 | 10 to 200 | 1 to 10 | 128 to 130 °C | – | –
NCc1cc2cc(F)cc(-c3cc(Cl)ccc3Cl)c2o1 [Compound 11, 1-[7-(2,5-dichlorophenyl)-5-fluoro-1-benzofuran-2-yl]methanamine] | 70 | < 10 | 0.01 to 1 | 245 to 247 °C | – | –
Cc1ccccc1-c1cccc2cc(CN)oc12 [Compound 12, 1-[7-(2-methylphenyl)-1-benzofuran-2-yl]methanamine] | 70 | < 10 | 1 to 10 | 222 to 224 °C | – | –
Cc1cc(Cl)ccc1-c1cc(F)cc2cc(CN)oc12 [Compound 13, 1-[7-(4-chloro-2-methylphenyl)-5-fluoro-1-benzofuran-2-yl]methanamine] | 80 | 10 to 200 | 1 to 10 | 172 to 174 °C | – | –
Cc1ccc(Cl)cc1-c1cc(F)cc2cc(CN)oc12 [Compound 14, 1-[7-(5-chloro-2-methylphenyl)-5-fluoro-1-benzofuran-2-yl]methanamine] | 80 | 10 to 200 | 1 to 10 | 208 to 210 °C | – | –
NCc1cc2cccc(-c3c(Cl)cccc3Cl)c2o1 [Compound 15, 1-[7-(2,6-dichlorophenyl)-1-benzofuran-2-yl]methanamine] | 90 | < 10 | 0.01 to 1 | 260 to 262 °C | – | –
NCc1cc2ccc(Cl)c(-c3ccccc3Cl)c2o1 [Compound 16, 1-[6-chloro-7-(2-chlorophenyl)-1-benzofuran-2-yl]methanamine] | 90 | < 10 | 0.01 to 1 | 208 to 210 °C | – | –
NCc1cc2ccc(F)c(-c3ccccc3Cl)c2o1 [Compound 17, 1-[7-(2-chlorophenyl)-6-fluoro-1-benzofuran-2-yl]methanamine] | – | – | – | > 250 °C | – | –
CSc1ccc2c(c1)C(N1CCN(C)CC1)Cc1ccccc1S2 (stereo not shown) [Methiothepin, reference compound] | – | – | – | – | 4.6 | –
COc1cc(CC(C)N)c(OC)cc1I (stereo not shown) [[^125I] DOI, reference compound] | – | – | – | – | – | 0.4
